Laboratory results as given in article PMC7407272, “Induction of Lysosome Membrane Permeabilization as a Therapeutic Strategy to Target Pancreatic Cancer Stem Cells” (Cancers, 2020).

What was measured:
Assay in all cases: KINOMEscan
Assay type in all cases: binding
Conditions in all cases: read-out: % Ctrl
[1] = target: T1, RAF1 (Homo sapiens, UniProt P04049)
T1 construct: purchased DiscoveRx KINOMEscan

[2] = target: T2, ERN1 (Homo sapiens, UniProt O75460)
T2 construct: purchased DiscoveRx KINOMEscan

[3] = target: T3, KIT(D816V) (Homo sapiens, UniProt P10721, D816V)
T3 construct: purchased DiscoveRx KINOMEscan

[4] = target: T4, CAMK2A (Homo sapiens, UniProt Q9UQM7)
T4 construct: purchased DiscoveRx KINOMEscan

[5] = target: T5, BRAF (Homo sapiens, UniProt P15056)
T5 construct: purchased DiscoveRx KINOMEscan
T5 sequence (P15056 whole entry): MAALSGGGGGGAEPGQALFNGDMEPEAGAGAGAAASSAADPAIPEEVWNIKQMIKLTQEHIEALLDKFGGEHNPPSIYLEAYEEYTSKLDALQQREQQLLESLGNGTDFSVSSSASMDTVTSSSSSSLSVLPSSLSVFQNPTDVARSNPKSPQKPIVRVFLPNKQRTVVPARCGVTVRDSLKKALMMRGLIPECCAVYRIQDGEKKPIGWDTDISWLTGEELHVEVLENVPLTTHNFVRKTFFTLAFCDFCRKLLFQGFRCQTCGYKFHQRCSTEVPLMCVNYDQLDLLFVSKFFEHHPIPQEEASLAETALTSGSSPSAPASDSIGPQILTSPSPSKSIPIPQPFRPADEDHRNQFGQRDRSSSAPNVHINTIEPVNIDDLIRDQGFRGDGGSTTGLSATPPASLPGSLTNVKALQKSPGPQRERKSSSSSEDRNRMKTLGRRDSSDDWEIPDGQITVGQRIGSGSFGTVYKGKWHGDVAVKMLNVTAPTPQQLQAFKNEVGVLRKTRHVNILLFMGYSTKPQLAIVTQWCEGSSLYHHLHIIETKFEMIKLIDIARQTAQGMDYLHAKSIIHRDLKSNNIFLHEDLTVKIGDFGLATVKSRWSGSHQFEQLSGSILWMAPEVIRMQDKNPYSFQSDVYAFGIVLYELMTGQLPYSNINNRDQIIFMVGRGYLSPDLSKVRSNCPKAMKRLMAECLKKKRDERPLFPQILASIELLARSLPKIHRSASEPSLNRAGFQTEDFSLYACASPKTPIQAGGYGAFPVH

[6] = target: T6, ULK2 (Homo sapiens, UniProt Q8IYT8)
T6 construct: purchased DiscoveRx KINOMEscan

[7] = target: T7, FER (Homo sapiens, UniProt P16591)
T7 construct: purchased DiscoveRx KINOMEscan

[8] = target: T8, ABL2 (Homo sapiens, UniProt P42684)
T8 construct: purchased DiscoveRx KINOMEscan

[9] = target: T9, RSK3(KD2-C-t.) (Homo sapiens, UniProt Q15349)
T9 construct: RSK3(KD2-C-t.); purchased DiscoveRx KINOMEscan

[10] = target: T10, CLK1 (Homo sapiens, UniProt P49759)
T10 construct: purchased DiscoveRx KINOMEscan

[11] = target: T11, ABL1(Q252H)-nonP (Homo sapiens, UniProt P00519, Q252H)
T11 construct: purchased DiscoveRx KINOMEscan

[12] = target: T12, ABL1(F317L)-nonP (Homo sapiens, UniProt P00519, F317L)
T12 construct: purchased DiscoveRx KINOMEscan

[13] = target: T13, ERBB4 (Homo sapiens, UniProt Q15303)
T13 construct: purchased DiscoveRx KINOMEscan

[14] = target: T14, MET(Y1235D) (Homo sapiens, UniProt P08581, Y1235D)
T14 construct: purchased DiscoveRx KINOMEscan

[15] = target: T15, GSK3B (Homo sapiens, UniProt P49841)
T15 construct: purchased DiscoveRx KINOMEscan

[16] = target: T16, EGFR(L861Q) (Homo sapiens, UniProt P00533, L861Q)
T16 construct: purchased DiscoveRx KINOMEscan
T16 sequence (P00533 25-1210 L861Q): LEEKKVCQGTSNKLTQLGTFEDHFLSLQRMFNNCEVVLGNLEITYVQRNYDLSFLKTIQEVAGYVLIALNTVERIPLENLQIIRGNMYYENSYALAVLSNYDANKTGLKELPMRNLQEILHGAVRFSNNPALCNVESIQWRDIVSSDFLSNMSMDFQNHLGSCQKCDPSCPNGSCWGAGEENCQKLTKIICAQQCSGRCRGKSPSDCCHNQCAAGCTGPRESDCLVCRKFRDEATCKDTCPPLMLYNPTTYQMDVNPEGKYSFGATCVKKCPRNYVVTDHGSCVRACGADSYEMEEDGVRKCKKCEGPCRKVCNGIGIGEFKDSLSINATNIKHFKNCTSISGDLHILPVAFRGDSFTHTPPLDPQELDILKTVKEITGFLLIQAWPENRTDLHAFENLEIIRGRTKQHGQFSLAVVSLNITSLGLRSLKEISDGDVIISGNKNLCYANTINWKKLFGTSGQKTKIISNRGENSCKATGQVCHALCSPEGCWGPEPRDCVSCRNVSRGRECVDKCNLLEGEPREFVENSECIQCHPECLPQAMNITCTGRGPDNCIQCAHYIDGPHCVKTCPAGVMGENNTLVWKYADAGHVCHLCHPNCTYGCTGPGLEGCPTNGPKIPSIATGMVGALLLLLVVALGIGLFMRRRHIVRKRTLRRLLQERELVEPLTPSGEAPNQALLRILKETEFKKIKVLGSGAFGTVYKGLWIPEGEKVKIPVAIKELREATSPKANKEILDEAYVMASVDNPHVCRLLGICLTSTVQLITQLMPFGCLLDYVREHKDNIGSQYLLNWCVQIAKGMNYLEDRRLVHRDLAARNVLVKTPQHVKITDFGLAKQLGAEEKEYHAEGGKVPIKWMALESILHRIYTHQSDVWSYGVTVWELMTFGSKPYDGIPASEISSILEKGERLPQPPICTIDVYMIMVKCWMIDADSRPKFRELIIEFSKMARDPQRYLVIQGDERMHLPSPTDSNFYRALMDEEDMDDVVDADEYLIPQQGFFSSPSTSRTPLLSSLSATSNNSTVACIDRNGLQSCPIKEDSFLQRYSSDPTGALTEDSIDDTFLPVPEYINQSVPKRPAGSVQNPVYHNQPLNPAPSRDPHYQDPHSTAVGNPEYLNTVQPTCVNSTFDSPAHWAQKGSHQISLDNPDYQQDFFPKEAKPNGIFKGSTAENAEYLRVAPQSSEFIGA

[17] = target: T17, RPS6KA5(KD2-C-t.) (Homo sapiens, UniProt O75582)
T17 construct: RPS6KA5(KD2-C-t.); purchased DiscoveRx KINOMEscan

[18] = target: T18, MKK7 (Homo sapiens, UniProt O14733)
T18 construct: purchased DiscoveRx KINOMEscan

[19] = target: T19, RIOK3 (Homo sapiens, UniProt O14730)
T19 construct: purchased DiscoveRx KINOMEscan
T19 sequence (O14730 whole entry): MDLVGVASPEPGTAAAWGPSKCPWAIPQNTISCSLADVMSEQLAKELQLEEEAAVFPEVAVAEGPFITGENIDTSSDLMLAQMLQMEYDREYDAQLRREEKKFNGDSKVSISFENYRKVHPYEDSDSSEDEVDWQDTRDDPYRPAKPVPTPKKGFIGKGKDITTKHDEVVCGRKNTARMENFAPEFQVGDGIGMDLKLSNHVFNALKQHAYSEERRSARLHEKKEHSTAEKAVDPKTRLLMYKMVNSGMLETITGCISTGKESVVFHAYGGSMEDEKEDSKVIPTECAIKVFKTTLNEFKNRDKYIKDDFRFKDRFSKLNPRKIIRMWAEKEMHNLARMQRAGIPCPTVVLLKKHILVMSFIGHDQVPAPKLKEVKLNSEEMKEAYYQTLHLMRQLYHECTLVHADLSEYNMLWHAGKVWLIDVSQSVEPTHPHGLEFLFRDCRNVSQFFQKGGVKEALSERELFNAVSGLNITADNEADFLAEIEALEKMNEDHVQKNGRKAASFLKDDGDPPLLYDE

[20] = target: PIM1 (Homo sapiens, UniProt P11309); design: purchased DiscoveRx KINOMEscan
[21] = target: T20, MYO3A (Homo sapiens, UniProt Q8NEV4)
T20 construct: purchased DiscoveRx KINOMEscan

[22] = target: T21, ULK3 (Homo sapiens, UniProt Q6PHR2)
T21 construct: purchased DiscoveRx KINOMEscan

[23] = target: T22, PKN2 (Homo sapiens, UniProt Q16513)
T22 construct: purchased DiscoveRx KINOMEscan

[24] = target: T23, FAK (Homo sapiens, UniProt Q05397)
T23 construct: purchased DiscoveRx KINOMEscan

[25] = target: T24, PAK1 (Homo sapiens, UniProt Q13153)
T24 construct: purchased DiscoveRx KINOMEscan

[26] = target: T25, CAMKK2 (Homo sapiens, UniProt Q96RR4)
T25 construct: purchased DiscoveRx KINOMEscan
T25 sequence (Q96RR4 whole entry): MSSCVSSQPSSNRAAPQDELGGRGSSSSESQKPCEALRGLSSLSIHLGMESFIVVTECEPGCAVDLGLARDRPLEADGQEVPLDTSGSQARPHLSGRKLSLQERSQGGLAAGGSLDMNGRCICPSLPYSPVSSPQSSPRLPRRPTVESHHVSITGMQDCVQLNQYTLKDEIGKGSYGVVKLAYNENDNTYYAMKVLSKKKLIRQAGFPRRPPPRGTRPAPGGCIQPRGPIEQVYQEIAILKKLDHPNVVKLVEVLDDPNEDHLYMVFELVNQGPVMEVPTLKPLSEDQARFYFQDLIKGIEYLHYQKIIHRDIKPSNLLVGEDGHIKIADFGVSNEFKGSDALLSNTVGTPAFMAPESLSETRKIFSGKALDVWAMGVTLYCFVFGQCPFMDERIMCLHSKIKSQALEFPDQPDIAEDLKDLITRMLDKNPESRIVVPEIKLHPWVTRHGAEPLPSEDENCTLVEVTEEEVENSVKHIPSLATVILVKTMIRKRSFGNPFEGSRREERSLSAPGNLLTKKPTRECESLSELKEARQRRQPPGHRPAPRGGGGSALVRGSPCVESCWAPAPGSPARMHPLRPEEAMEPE

[27] = target: T26, STK33 (Homo sapiens, UniProt Q9BYT3)
T26 construct: purchased DiscoveRx KINOMEscan

[28] = target: T27, STK16 (Homo sapiens, UniProt O75716)
T27 construct: purchased DiscoveRx KINOMEscan
T27 sequence (O75716 whole entry): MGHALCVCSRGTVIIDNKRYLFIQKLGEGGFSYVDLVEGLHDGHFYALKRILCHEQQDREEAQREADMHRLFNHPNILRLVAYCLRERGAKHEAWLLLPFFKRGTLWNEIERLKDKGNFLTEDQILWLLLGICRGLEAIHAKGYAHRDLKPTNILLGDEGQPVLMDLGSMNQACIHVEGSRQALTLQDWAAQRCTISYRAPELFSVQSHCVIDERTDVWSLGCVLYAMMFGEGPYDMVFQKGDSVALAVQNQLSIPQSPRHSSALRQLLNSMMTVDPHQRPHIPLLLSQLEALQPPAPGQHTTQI

[29] = target: T28, KIT(V559D) (Homo sapiens, UniProt P10721, V559D)
T28 construct: purchased DiscoveRx KINOMEscan

[30] = target: T29, GRK4 (Homo sapiens, UniProt P32298)
T29 construct: purchased DiscoveRx KINOMEscan
T29 sequence (P32298 whole entry): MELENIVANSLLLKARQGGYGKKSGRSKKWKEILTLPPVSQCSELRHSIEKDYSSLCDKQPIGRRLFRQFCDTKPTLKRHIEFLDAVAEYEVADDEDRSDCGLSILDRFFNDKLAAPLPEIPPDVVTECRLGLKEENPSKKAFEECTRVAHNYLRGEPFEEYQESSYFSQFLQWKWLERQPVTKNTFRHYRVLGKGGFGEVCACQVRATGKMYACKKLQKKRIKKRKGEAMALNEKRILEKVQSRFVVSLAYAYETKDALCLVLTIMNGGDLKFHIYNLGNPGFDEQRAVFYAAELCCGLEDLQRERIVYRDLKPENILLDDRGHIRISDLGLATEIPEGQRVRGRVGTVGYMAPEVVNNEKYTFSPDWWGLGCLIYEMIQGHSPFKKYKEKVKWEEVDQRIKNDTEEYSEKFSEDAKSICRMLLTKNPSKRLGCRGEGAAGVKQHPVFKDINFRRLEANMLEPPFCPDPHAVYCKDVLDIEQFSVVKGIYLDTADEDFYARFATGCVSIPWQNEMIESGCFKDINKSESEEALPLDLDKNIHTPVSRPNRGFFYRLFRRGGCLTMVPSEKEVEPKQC

[31] = target: T30, ABL1-nonP (Homo sapiens, UniProt P00519)
T30 construct: purchased DiscoveRx KINOMEscan

[32] = target: T31, CSNK1G1 (Homo sapiens, UniProt Q9HCP0)
T31 construct: purchased DiscoveRx KINOMEscan

[33] = target: T32, CDK5 (Homo sapiens, UniProt Q00535)
T32 construct: purchased DiscoveRx KINOMEscan

[34] = target: T33, KIT (Homo sapiens, UniProt P10721)
T33 construct: purchased DiscoveRx KINOMEscan

[35] = target: T34, RIPK1 (Homo sapiens, UniProt Q13546)
T34 construct: purchased DiscoveRx KINOMEscan

[36] = target: T35, EGFR(S752-I759del) (Homo sapiens, UniProt P00533, DEL752-759)
T35 construct: purchased DiscoveRx KINOMEscan

[37] = target: T36, MAP4K5 (Homo sapiens, UniProt Q9Y4K4)
T36 construct: purchased DiscoveRx KINOMEscan

[38] = target: T37, PCTK3 (Homo sapiens, UniProt Q07002)
T37 construct: purchased DiscoveRx KINOMEscan

[39] = target: T38, TYK2(JH1D.-cat.) (Homo sapiens, UniProt P29597)
T38 construct: TYK2(JH1D.-cat.); purchased DiscoveRx KINOMEscan

[40] = target: T39, EPHB6 (Homo sapiens, UniProt O15197)
T39 construct: purchased DiscoveRx KINOMEscan
T39 sequence (O15197 32-1021): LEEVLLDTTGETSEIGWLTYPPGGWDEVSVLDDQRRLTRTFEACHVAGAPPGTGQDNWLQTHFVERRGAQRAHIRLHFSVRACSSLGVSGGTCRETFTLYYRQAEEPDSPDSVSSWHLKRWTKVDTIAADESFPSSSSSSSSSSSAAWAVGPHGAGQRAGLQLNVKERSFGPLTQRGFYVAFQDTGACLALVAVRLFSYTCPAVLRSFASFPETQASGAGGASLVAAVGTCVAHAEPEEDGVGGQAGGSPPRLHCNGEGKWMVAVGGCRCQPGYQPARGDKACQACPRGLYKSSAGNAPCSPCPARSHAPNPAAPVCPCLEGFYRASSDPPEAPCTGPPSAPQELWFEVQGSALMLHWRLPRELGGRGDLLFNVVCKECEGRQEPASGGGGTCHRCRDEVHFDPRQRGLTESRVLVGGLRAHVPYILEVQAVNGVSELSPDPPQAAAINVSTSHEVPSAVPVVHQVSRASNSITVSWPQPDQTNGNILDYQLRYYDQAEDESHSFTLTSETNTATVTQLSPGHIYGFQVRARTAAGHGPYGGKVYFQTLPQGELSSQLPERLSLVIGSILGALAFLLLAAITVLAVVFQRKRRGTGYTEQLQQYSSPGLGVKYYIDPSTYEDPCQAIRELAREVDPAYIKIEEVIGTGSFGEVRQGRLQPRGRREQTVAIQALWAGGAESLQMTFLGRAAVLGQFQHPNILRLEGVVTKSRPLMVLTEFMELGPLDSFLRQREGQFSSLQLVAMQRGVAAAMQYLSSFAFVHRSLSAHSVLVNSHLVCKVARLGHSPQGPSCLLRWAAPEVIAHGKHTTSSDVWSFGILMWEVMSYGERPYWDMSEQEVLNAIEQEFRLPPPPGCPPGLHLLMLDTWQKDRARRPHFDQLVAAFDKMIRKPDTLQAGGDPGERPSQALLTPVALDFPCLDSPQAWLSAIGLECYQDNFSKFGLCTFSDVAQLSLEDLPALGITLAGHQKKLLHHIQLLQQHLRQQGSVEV

[41] = target: T40, PRKCE (Homo sapiens, UniProt Q02156)
T40 construct: purchased DiscoveRx KINOMEscan

## CN1CCC(CNc2ccc3ncc(C(=O)Nc4cccc(OC(F)(F)F)c4)n3n2)CC1 [Cpd 2]
[1]
  remaining binding at 1 µM: 100%
[2]
  remaining binding at 1 µM: 79%
[3]
  remaining binding at 1 µM: 89%
[4]
  remaining binding at 1 µM: 82%
[5]
  remaining binding at 1 µM: 100%
[6]
  remaining binding at 1 µM: 100%
[7]
  remaining binding at 1 µM: 98%
[8]
  remaining binding at 1 µM: 96%
[9]
  remaining binding at 1 µM: 74%
[10]
  remaining binding at 1 µM: 100%
[11]
  remaining binding at 1 µM: 94%
[12]
  remaining binding at 1 µM: 66%
[13]
  remaining binding at 1 µM: 100%
[14]
  remaining binding at 1 µM: 93%
[15]
  remaining binding at 1 µM: 97%
[16]
  remaining binding at 1 µM: 94%
[17]
  remaining binding at 1 µM: 92%
[18]
  remaining binding at 1 µM: 100%
[19]
  remaining binding at 1 µM: 78%
[20]
  remaining binding at 1 µM: 5%
[21]
  remaining binding at 1 µM: 91%
[22]
  remaining binding at 1 µM: 78%
[23]
  remaining binding at 1 µM: 79%
[24]
  remaining binding at 1 µM: 100%
[25]
  remaining binding at 1 µM: 100%
[26]
  remaining binding at 1 µM: 100%
[27]
  remaining binding at 1 µM: 100%
[28]
  remaining binding at 1 µM: 96%
[29]
  remaining binding at 1 µM: 95%
[30]
  remaining binding at 1 µM: 93%
[31]
  remaining binding at 1 µM: 100%
[32]
  remaining binding at 1 µM: 99%
[33]
  remaining binding at 1 µM: 100%
[34]
  remaining binding at 1 µM: 99%
[35]
  remaining binding at 1 µM: 100%
[36]
  remaining binding at 1 µM: 97%
[37]
  remaining binding at 1 µM: 92%
[38]
  remaining binding at 1 µM: 100%
[39]
  remaining binding at 1 µM: 65%
[40]
  remaining binding at 1 µM: 92%
[41]
  remaining binding at 1 µM: 70%
